Measured values published in patent publication US7425548B2, “Materials and methods for immune system stimulation” (Variety Chidren's Hospital, priority 2004, dated 2008).

Legend:
RAW264.7 macrophages = assay: Opsonized binding and phagocytosis of FITC-zymosan A bioparticles; format: cell-based, mouse; settings: 37° C.
Experimental: Monocytes were incubated with RR1 at 37° C. for 1 hour followed by FITC-labeled zymosan A bioparticles for another 1 hour at 37° C. The cells were washed and intracellular fluorescence measured in a Coulter Elite Flow cytometer.
Opsonized binding and Phagocytosis. To determine the effect of RR1 and laminarin on opsonized binding and phagocytosis of zymosan A particles, RAW 264.7 cells were treated with RR1 or laminarin (0 and 500 μg/ml) in DMEM at 37° C. for 1 hour. This will ensure the release of opsonins and facilitate opsonic binding. The cells were washed with PBS twice and incubated with zymosan A-FITC bioparticles at a ratio of 25 particles/cell at 37° C. for 1 hour. The cells were suspended in PBS after removing the unbound zymosan particles by extensive washing with the medium, and the intracellular fluorescence analyzed in a Coulter Elite flow cytometer. The fluorescence intensity was expressed as percentage of control.

RAW 264.7 cells = assay: RR1-induced TNF-α synthesis with and without CAPE, ELISA; format: cell-based, mouse; settings: CAPE 10 μg/ml for 1 hour prior to RR1, all RR1 concentrations
Experimental: The cells were pre-incubated with 10 μg/ml CAPE for 1 hour in 0.5% FBS containing DMEM medium and replaced with medium containing RR1 at varying concentrations for 4 hour at 37° C. The medium was analyzed for secreted TNF-α using ELISA protocol.
RR1-induced TNF-α synthesis. RAW 264.7 cells (0.5×10^6/ml) were plated on 6-well plates with DMEM medium containing 0.5% FBS (starvation). Once the cells were attached, medium was replaced, RR1 was added at 0, 100, 500 and 1000 μg/ml doses and incubated at 37° C. for 24 hours. The medium was analyzed for the secreted TNF-α using the ELISA kit (BD BIOSCIENCES kit, San Jose, Calif.) based on the manufacturer's protocol.
To determine the effect of NF-κB inhibitor CAPE on TNF-α synthesis, RAW 264.7 cells were treated with 10 μg/ml of CAPE for 1 hour at 37° C. followed by treatment with RR1 (0-1000 μg/ml) overnight in the incubator. The secreted TNF-α in the medium was analyzed using ELISA (BD BIOSCIENCES, San Jose, Calif.).

Molecule	inhibitory effect on opsonized binding and phagocytosis of zymosan A bioparticles (RAW264.7 macrophages; 500 μg/ml, 1 hour)	inhibition of zymosan bioparticle internalization (RAW264.7 macrophages; opsonized)	effect on RR1-induced TNF-α synthesis (RAW 264.7 cells)
Laminarin [reference compound]	absolute inhibitory effect	about 90%	–
O=C(/C=C/c1ccc(O)c(O)c1)OCCc1ccccc1 [CAPE, caffeic acid phenethyl ester, reference compound]	–	–	completely inhibited
